Results: PMC10186366 (ACS Pharmacology & Translational Science, 2023)

What was measured:
KB tumor cells = assay: Metabolite rescue of growth inhibition in KB cells; type: cell-based, human; conditions: glycine- and nucleoside-free media; for Protection from growth inhibition by glycine plus adenosine over adenosine alone: 160 μM glycine combined with 60 μM adenosine; for Protection from growth inhibition by adenosine: inhibitor up to 1000 nM, 60 μM adenosine alone
Method: Upper panel: schematic of C1 metabolism. Undefined abbreviations include the following: DHF, dihydrofolate; THF, tetrahydrofolate; FAICAR, formyl 5-aminoimidazole-4-carboxamide ribonucleotide; fGAR, formyl GAR; and 5,10-meTHF, 5,10-methylene tetrahydrofolate. Lower panels: KB cells were plated (4000 cells/well) in glycine-, nucleoside-, and folate-free RPMI 1640 medium with 10% dialyzed fetal bovine serum, antibiotics, L-glutamine, and 2 nM leucovorin over a range of inhibitor concentrations in the presence of adenosine (60 μM), glycine (160 μM), thymidine (10 μM), or AICA (320 μM). As shown, combined glycine plus adenosine or AICA was also tested to identify potential mitochondrial C1 targeting.[45] Cell proliferation was assayed with a fluorescence-based assay.[26] Data are representative of at least triplicate experiments (presented as mean values plus/minus standard errors). Methods are described in the Experimental Section, and additional metabolite rescue data for 4, 5, and 8–11 are presented in Figure S3 (Supporting Information).
Metabolite “rescue” experiments have been used to identify targeted pathways for novel antifolate inhibitors including de novo purine nucleotide and thymidylate biosynthesis (protection by adenosine and thymidine, respectively)[25]−[27],[29],[30],[32],[43],[45]−[47] and mitochondrial C1 metabolism (protection by glycine and adenosine).[45] To gain insights into the targeted pathways that contribute to the loss of KB tumor cell proliferation upon treatment with compounds 3–9, we tested the reversal of growth inhibition by the active compounds in Table 1 (up to 1000 nM) in glycine- and nucleoside-free media in the presence of 60 μM adenosine, 160 μM glycine, or 10 μM thymidine alone or with combined adenosine and glycine. The use of glycine- and nucleoside-free media for these experiments expands the ability to identify causal intracellular targets (including previously unrecognized mitochondrial targets[45]) that can be confirmed by targeted metabolomics and direct in vitro assays (below). […] The results of these experiments are shown in Figure 7 (lower panel) and in Figure S3 (Supporting Information).
AICA circumvents the first folate-dependent enzyme, GARFTase, and is directly metabolized to ZMP (AICAR), thus providing a substrate for AICARFTase[26],[32],[46] (Figure 7, upper panel). This distinguishes primary inhibition at GARFTase (protection by AICA) versus AICARFTase (incomplete protection by AICA) for inhibitors of de novo purine biosynthesis.[25]
Additional proliferation assays with metabolite rescue used KB cells to identify the targeted pathway and enzyme(s) in folate- and glycine-free RPMI1640, DFBS, 2 mM glutamine, and antibiotics. […] These assays have been previously described.[25],[26],[45]

[1] = system: RT16 CHO cells (expresses only human FRα); assay: Cell proliferation assay, RT16 CHO subline; type: cell-based, Chinese hamster
Description: (§1) We used a unique panel of engineered Chinese hamster ovary (CHO) sublines derived from a transporter-null MTXRIIOua^R2-4 CHO subline (R2) and designed to individually express human FRα (RT16), FRβ (D4), RFC (PC43-10), or PCFT (R2/PCFT).[39]−[42] As the CHO sublines are isogenic and differ only in the presence or absence of the human folate transporters, differences in the extent of inhibition of cell proliferation between the cell lines upon treatment with the various compounds provide a robust readout of transport specificities.[25],[26],[29],[30],[43]
(§2) The CHO sublines were treated for 96 h with a range of drug concentrations up to 1000 nM; cell viabilities were measured with a fluorescence assay.[26] […] As a control, we used transporter-null R2 cells.[42] To extend studies to human tumor cells, we also performed experiments in RFC-, PCFT-, and FRα-expressing KB tumor cells.[44] To confirm the contribution of FR-mediated uptake to antitumor activity, for KB cells, we added 200 nM folic acid, which inhibits FR uptake by direct competition without effects on either RFC or PCFT.[25],[26],[28]−[30],[43]
(§3) The MTXRIIOua^R2-4 RFC-, PCFT-, and FRα-null Chinese hamster ovary (CHO) cell line (R2) was a gift from Dr. Wayne Flintoff (University of Western Ontario).[40],[42] Isogenic CHO cell lines were subsequently derived from R2 cells by transfection with RFC, PCFT, or FRα cDNAs to generate PC43-10 (expresses only human RFC), R2/PCFT4 (expresses only human PCFT), RT16 (expresses only human FRα), and D4 (expresses only human FRβ).[25],[26],[39]
(§4) The CHO sublines were cultured in α-minimal essential medium (α-MEM) supplemented with 100 U/mL penicillin/100 μg/mL streptomycin, 2 mM L-glutamine, and 10% bovine calf serum (Sigma-Aldrich). For the PC43-10, R2/PCFT4, RT16, and D4 sublines, 1.5 mg/mL G418 was also added. Seventy-two hours prior to in vitro proliferation assays (below), RT16 and D4 CHO cells were grown in folate-free RPMI with dialyzed fetal bovine serum (DFBS) (Invitrogen) supplemented with 100 U/mL penicillin/[…] streptomycin and 2 mM L-glutamine. FRα-expressing KB nasopharyngeal carcinoma cells were acquired from the American Type Culture Collection (Manassas, VA); cells were grown in complete folate-free RPMI 1640 supplemented with 10% fetal bovine serum, 100 U/mL penicillin/100 μg/mL streptomycin, and 2 mM L-glutamine. Cell lines were authenticated by STR analysis (Genetica DNA Laboratories, Burlington, NC) and tested for Mycoplasma by PCR (Venor GeM Mycoplasma Detection Kit, Sigma). Frozen stocks were generated from authenticated Mycoplasma-free cultures.
(§5) Cell proliferation assays used CHO and KB cells cultured in folate-free-RPMI 1640 media with 10% DFBS, 2 mM L-glutamine, and 100 U/mL penicillin/100 μg/mL streptomycin supplemented with 2 nM (KB, RT16, D4) or 25 nM (R2, PC43-10, R2/PCFT4) leucovorin.[25],[26],[30] Parallel incubations with 200 nM folic acid were performed in viability assays to confirm FR-mediated drug uptake. Cells were plated in 96-well dishes at 2500–5000 cells/well in 200 μL media and treated with a range of C1 inhibitors spanning 0 to 1 μM. Cells were treated at 37 ° C with 5% CO2, and numbers were assayed after 96 h using CellTiter-blue (Promega, Madison, WI) and a fluorescence plate reader.[25],[26]

[2] = system: PC43-10 CHO cells (expresses only human RFC); assay: Cell proliferation assay, PC43-10 CHO subline; type: cell-based, Chinese hamster; conditions: 96 h, up to 1000 nM, 25 nM leucovorin, mean (standard error); for IC50: Homo sapiens, PC43-10
Description: as §1, §2, §3, §4, §5

[3] = system: D4 CHO cells (expresses only human FRβ); assay: Cell proliferation assay, D4 CHO subline; type: cell-based, Chinese hamster; conditions: 96 h, 2 nM leucovorin, mean (standard error)
Description: as §1, §2, §3, §4, §5

[4] = system: KB human tumor cells (RFC/FRα/PCFT); assay: Cell proliferation assay, KB tumor cells (with or without 200 nM folic acid); type: cell-based; conditions: 96 h, 2 nM leucovorin, no folic acid, mean (standard error)
Method: as §2, §4, §5

[5] = Homo sapiens, RT16, 96 h, 2 nM leucovorin, mean (standard error)
[6] = Homo sapiens, RT16; 96 h, 2 nM leucovorin; mean (standard error)

Row | SMILES | Protection from growth inhibition by glycine plus adenosine over adenosine alone (KB tumor cells) | IC50 ([1]; 96 h, 2 nM leucovorin; mean (standard error)) | IC50 [1, 5] | IC50 [2] | IC50 [3] | Protection from growth inhibition by adenosine (KB tumor cells) | IC50 [4] | IC50 [1, 6] | IC50 RFC PC43-10 [2]
1 | Nc1nc2sc(CCCc3ccc(C(=O)N[C@@H](CCC(=O)O)C(=O)O)cc3)cc2c(=O)[nH]1 [Compound 1] | substantially enhanced and was complete | – | – | – | – | – | – | – | –
2 | Nc1nc2sc(CCCCc3cccc(C(=O)N[C@@H](CCC(=O)O)C(=O)O)n3)cc2c(=O)[nH]1 [Compound 3, (6-(4-(2-Amino-4-oxo-3,4-dihydrothieno[2,3-d]pyrimidin-6-yl)butyl)picolinoyl)-L-glutamic Acid] | – | 24.7 nM | 25 nM | > 1000 nM | 41.9 nM | – | – | – | –
3 | Nc1nc2sc(CCCCc3ccc(C(=O)N[C@@H](CCC(=O)O)C(=O)O)nc3)cc2c(=O)[nH]1 [Compound 4, (5-(4-(2-Amino-4-oxo-3,4-dihydrothieno[2,3-d]pyrimidin-6-yl)butyl)picolinoyl)-L-glutamic Acid] | slightly and reproducibly enhanced | – | – | > 1000 nM | 60.8 nM | substantially protective | 2.11 nM | 0.94 nM | –
4 | Nc1nc2sc(CCCCc3cnc(C(=O)N[C@@H](CCC(=O)O)C(=O)O)c(F)c3)cc2c(=O)[nH]1 [Compound 5, (5-(4-(2-Amino-4-oxo-3,4-dihydrothieno[2,3-d]pyrimidin-6-yl)butyl)-3-fluoropicolinoyl)-L-glutamic Acid] | – | – | 1.23 nM | > 1000 nM | 0.25 nM | completely protective | 5.05 nM | – | –
5 | Nc1nc2sc(CCCc3ccc(C(=O)N[C@@H](CCC(=O)O)C(=O)O)c(F)c3)cc2c(=O)[nH]1 [Compound 6, (4-(3-(2-Amino-4-oxo-3,4-dihydrothieno[2,3-d]pyrimidin-6-yl)propyl)-2-fluorobenzoyl)-L-glutamic Acid] | substantially enhanced and was complete | – | 1.07 nM | > 1000 nM | 0.48 nM | – | 7.19 nM | – | –
6 | Nc1nc2sc(CCCCc3ccc(C(=O)N[C@@H](CCC(=O)O)C(=O)O)c(F)c3)cc2c(=O)[nH]1 [Compound 7, (4-(4-(2-Amino-4-oxo-3,4-dihydrothieno[2,3-d]pyrimidin-6-yl)butyl)-2-fluorobenzoyl)-L-glutamic Acid] | slightly and reproducibly enhanced | – | 2.27 nM | > 1000 nM | 1.14 nM | substantially protective | 5.27 nM | – | –
7 | Nc1nc2sc(CCCc3csc(C(=O)N[C@@H](CCC(=O)O)C(=O)O)c3F)cc2c(=O)[nH]1 [Compound 8, (4-(3-(2-Amino-4-oxo-3,4-dihydrothieno[2,3-d]pyrimidin-6-yl)propyl)-3-fluorothiophene-2-carbonyl)-L-glutamic Acid] | – | – | 1.96 nM | 560 nM | 0.26 nM | completely protective | 6.84 nM | – | slight inhibition
8 | Nc1nc2sc(CCCCc3csc(C(=O)N[C@@H](CCC(=O)O)C(=O)O)c3F)cc2c(=O)[nH]1 [Compound 9, (4-(4-(2-Amino-4-oxo-3,4-dihydrothieno[2,3-d]pyrimidin-6-yl)butyl)-3-fluorothiophene-2-carbonyl)-L-glutamic Acid] | slightly and reproducibly enhanced | – | – | > 1000 nM | 0.48 nM | substantially protective | 2.63 nM | 1.29 nM | –
